According to paper PMC11343806 (Journal of Biological Inorganic Chemistry, 2024):
Read-outs that look alike come from different tables or passages of the source.

Assays:
[1] = tested on: A-549 lung cancer cells; assay: Antiproliferative assay (crystal violet); format: cell-based, human; details: 72 h exposure, ± standard deviation, n = 2–4, read-out: IC50, antiproliferative effects, A-549
Experimental: (§1) The antiproliferative effects were determined according to a previously published procedure. A volume of 100 µL of cell suspension of A549 cells, MDA-MB-231, HT-29 or Vero E6 cells was transferred into the wells of a 96-well plates and incubated at 37 °C under 5% CO2 for 72 h. […] The results were calculated as the mean values of three independent experiments, unless stated otherwise.

[2] = tested on: HT-29 colon carcinoma cells; assay: Antiproliferative assay (crystal violet); format: cell-based, human; details: 72 h exposure, ± standard deviation, n = 2–4, read-out: IC50, antiproliferative effects, HT-29
Experimental: as §1

[3] = tested on: MDA-MB-231 breast cancer cells; assay: Antiproliferative assay (crystal violet); format: cell-based, human; details: 96 h exposure, ± standard deviation, n = 2–4, read-out: IC50, antiproliferative effects, MDA-MB-231
Experimental: as §1

[4] = tested on: Staphylococcus aureus MRSA (DSM 11822, ICB 25701); assay: MIC broth dilution, aerobic bacteria; format: cell-based; details: 20 h at 37 °C, ± standard error, n ≥ 3
Experimental: (§2) The following strains were used and maintained at 37 °C in MHB (21 g/L Müller Hinton, pH 7.4) or TSY (30 g/L trypticase soy broth, 3 g/L yeast extract, pH 7.0–7.2) medium. Acinetobacter baumannii (DSM 30007, ATCC 19606) in MHB, Escherichia coli (DSM1116, ATCC 9637) in TSY, Klebsiella pneumoniae (DSM 11678, ATCC33495) in MHB, Pseudomonas aeruginosa PA7 (DSM 24068) in MHB, Enterococcus faecium (DSM 20477, ATCC 19434) in TSY, Staphylococcus aureus MRSA (DSM 11822, ICB 25701) in TSY). Minimum inhibitory concentration (MIC) values were determined following a standardized protocol in broth dilution assays. […] Starting inocula of 2–8 × 10^5 colony-forming units per ml in MHB or TSY media at 37 °C were used, and serial dilutions were carried out in 384-well microtiter plates in duplicate. […] The MIC values for the tested compounds were determined in three independent experiments by a curve-fitting procedure using the GraphPad Prism software (Graphpad Software, Inc.).

[5] = tested on: Pseudomonas aeruginosa PA7 (DSM 24068); assay: MIC broth dilution, aerobic bacteria; format: cell-based; details: ± standard error, n ≥ 3, read-out: MIC, P.aeruginosa
Experimental: as §2

[6] = tested on: Klebsiella pneumoniae (DSM 11678, ATCC33495); assay: MIC broth dilution, aerobic bacteria; format: cell-based; details: 20 h at 37 °C, ± standard error, n ≥ 3, read-out: MIC, K. pneumoniae
Experimental: as §2

[7] = tested on: Enterococcus faecium (DSM 20477, ATCC 19434); assay: MIC broth dilution, aerobic bacteria; format: cell-based; details: 20 h at 37 °C, ± standard error; for MIC: n ≥ 3, read-out: MIC, E. faecium; for MIC, E. faecium: n ≥ 3
Experimental: as §2

[8] = tested on: Escherichia coli (DSM1116, ATCC 9637); assay: MIC broth dilution, aerobic bacteria; format: cell-based; details: 20 h at 37 °C, ± standard error, n ≥ 3
Experimental: as §2

[9] = tested on: Acinetobacter baumannii (DSM 30007, ATCC 19606); assay: MIC broth dilution, aerobic bacteria; format: cell-based; details: 20 h at 37 °C, ± standard error, n ≥ 3
Experimental: as §2

[10] = tested on: A-549, HT-29, MDA-MB-231 and Vero E6 cells; assay: Antiproliferative assay, summary over all cell lines; format: cell-based; details: for IC50: all four cell lines, for 2c except MDA-MB-231, read-out: IC50 values, antiproliferative effects, all cell lines
Experimental: as §1

[11] = target: T1, bacterial TrxR from E. coli (Escherichia coli, UniProt P0A9P4); assay: Inhibition of bacterial TrxR (E. coli), DTNB/5-TNB assay; format: biochemical; details: purified enzyme, 75 min incubation at 25 °C; means and standard deviations
T1 construct: purchased Sigma-Aldrich
T1 sequence (P0A9P4 whole entry): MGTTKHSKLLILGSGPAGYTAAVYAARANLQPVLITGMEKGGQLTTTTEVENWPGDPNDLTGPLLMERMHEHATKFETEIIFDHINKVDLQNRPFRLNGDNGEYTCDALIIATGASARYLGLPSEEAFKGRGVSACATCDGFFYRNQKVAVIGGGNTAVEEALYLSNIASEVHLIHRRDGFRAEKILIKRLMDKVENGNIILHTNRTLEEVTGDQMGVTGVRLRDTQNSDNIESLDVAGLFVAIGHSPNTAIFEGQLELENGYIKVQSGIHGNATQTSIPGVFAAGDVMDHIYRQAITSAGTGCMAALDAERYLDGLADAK
Experimental: The TrxR (E.coli) inhibition assay was performed according to a previously published procedure. It is partly based on the procedure developed by Lu et al.[35] and detects the formation of 5-TNB (5-thionitrobenzoic acid). Solutions of E. coli TrxR (35.4 U/mL) and of its substrate thioredoxin (Trx) E. coli (156 µg/mL) (both purchased from Sigma-Aldrich and diluted with distilled water) and fresh stock solutions of the test compounds (in DMF) were prepared (1c was administered as suspension). TE buffer (Tris–HCl 50 mM, EDTA 1 mM, pH 7.5) containing graded concentrations of the respective compounds (20 µL) or buffer without compounds (20 µL, as control) were mixed with TrxR solution (10 µL), Trx solution (10 µL), and a solution of NADPH (200 µM) in TE buffer (100 µL) in a well on a 96-well plate. As blank solution, 200 µM NADPH in TE buffer (100 µL) mixed with a DMF/buffer mixture (40 µL) was used (final concentrations of DMF: 0.5% v/v). The solutions on the 96-well plate were incubated for 75 min at 25 °C with moderate shaking. A volume of 100 µL of a reaction mixture (TE buffer containing 200 µM NADPH and 5 mM DTNB) was added to each well to initiate the reaction. After thorough mixing, the formation of 5-TNB was monitored by a microplate reader at 405 nm in 35 s intervals (10 measurements). The values were corrected by subtraction of the values for the blank solution. The increase in concentration of 5-TNB followed a linear trend (r^2 ≥ 0.990) and the enzymatic activities were calculated as the gradients (increase in absorbance per second) thereof. Absence of interference with the assay components was confirmed by a negative control experiment for each test compound. The highest test compound concentration was used and the enzyme solution was replaced by TE buffer for this purpose. The IC50 values were calculated as the concentration of the compound decreasing the enzymatic activity of the positive control by 50% and are presented as the means and standard deviations of independent repeated experiments.

[12] = tested on: C. difficile strain IB136 (NCTC 14385), metronidazole-resistant; assay: Antibacterial effects against C. difficile (anaerobic growth curves, OD600); format: cell-based, Clostridioides difficile
Experimental: (§3) (provided by Ulrich Nübel, DSMZ Braunschweig) were maintained in prereduced BHIS medium (37 g/L BHI, oxoid, 5% yeast extract, 1% L-cysteine) in a Coy-Laboratories anaerobic chamber (85% N2, 10% CO2, 5% H2) at 37 °C. Freshly prepared cultures were incubated until the exponential growth phase (OD600 = 0.2–0.4) and were adjusted to 1 × 10^6 cfu/mL before inoculation. The test compounds were dissolved in DMSO and by two-fold dilution steps concentrations in the range from 200 µM to 0.39 µM in BIHS medium were obtained. The solutions (100µL) were added to 100 µL of a diluted C. difficile culture (total volume: 200 µL in BIHS, 5 × 10^5 C. difficile, 100–0.195 µM test compound per well). The OD600-values over a period of 48 h were measured with a LogPhase 600 4-plate reader (BioTek) and compared with blank BHIS.

[13] = tested on: C. difficile strain VPI10463 (ATCC 43255), metronidazole-sensitive; assay: as above; format: cell-based, Clostridioides difficile
Experimental: as §3

[14] = tested on: C. difficile strain 1296^ T (DSM 1296), metronidazole-sensitive; assay: as above; format: cell-based, Clostridioides difficile
Experimental: as §3

[15] = tested on: aerobic Gram-positive and Gram-negative pathogenic bacteria strains; assay: MIC, summary over the panel of aerobic bacteria; format: cell-based; details: for MIC values against all bacteria strains: all strains of the panel
Experimental: as §2

[16] = tested on: Vero E6 non-tumorigenic epithelial kidney cells; assay: Antiproliferative assay (crystal violet); format: cell-based, African green monkey; details: 72 h exposure, ± standard deviation, n = 2–4, read-out: IC50, antiproliferative effects, Vero E6
Experimental: as §1

[17] = Solubility observations

Structure (SMILES)	IC50 [1]	IC50 [2]	IC50 [3]	MIC, MRSA [4]	MIC ([5]; 20 h at 37 °C)	MIC [6]	MIC, E. coli [8]	MIC [9]	IC50 [10]	IC50 [11]	MIC values against all bacteria strains ([15]; aerobic conditions)	IC50 [16]	MIC, E. faecium [7]	MIC [8]	activity against Gram-negative strains (in words) ([15]; aerobic conditions)	also measured
Cn1[c](=[Au][Cl])n(CC(=O)O)c2ccccc21 [Compound 2b]	> 100 µM	> 80 µM	65.7 ± 8.2 µM	151.4 ± 0.0 µM	> 151.4 µM	> 151.4 µM	151.4 ± 0.0 µM	> 151.4 µM	> 60 µM	0.364 ± 0.103 µM	> 100 µM	> 100 µM	–	–	–	MIC [7]: > 151.4 µM; antibacterial effect, dosages from 0.2 to 100 µM ([12]; strain IB136 (Figure S3)): inactive; antibacterial effect, dosages from 0.2 to 100 µM ([13]; strain VPI10463 (Figure S2)): inactive; antibacterial effect, dosages from 0.2 to 100 µM ([14]; strain 1296T (Figure S1)): inactive
CCn1[c]([Au-][Cl])[n+](CC)c2cc(C(=O)O)ccc21 [Compound 1b, Chlorido-(1,3-diethyl-5-carboxybenzimidazol-2-ylidene)gold(I)]	> 75 µM	66.3 ± 8.8 µM	74.6 ± 1.3 µM	142.0 ± 0.0 µM	> 142.0 µM	> 142.0 µM	142.0 ± 0.0 µM	> 142.0 µM	> 60 µM	0.297 ± 0.031 µM	> 100 µM	> 100 µM	142.0 ± 0.0 µM	–	–	–
CCn1[c](=[Au][Cl])n(CC)c2cc(C(=O)OCCn3c([N+](=O)[O-])cnc3C)ccc21 [Compound 1c, Chlorido-(1,3-diethyl-5-((2-(2-methyl-5-nitroimidazol-1-yl)ethoxy)carbonyl)benzimidazol-2-ylidene)gold(I)]	> 100 µM	> 100 µM	> 100 µM	106.0 ± 0.0 µM	> 106.0 µM	> 106.0 µM	–	> 106.0 µM	> 60 µM	0.145 ± 0.038 µM	–	> 100 µM	44.2 ± 15.3 µM	> 106.0 µM	inactive	MIC values against Gram-positive strains ([15]; MRSA and E. faecium, except for 1c in MRSA): 37 to 44 µM; solubility in organic solvents [17]: limited solubility in organic solvents
CC(=O)OC[C@H]1O[C@@H]([S-])[C@H](OC(C)=O)[C@@H](OC(C)=O)[C@@H]1OC(C)=O.CCP(CC)CC.[Au+] [Auranofin, reference compound]	4.2 ± 0.6 µM	10.5 ± 4.8 µM	1.2 ± 0.3 µM	–	> 30 µM	> 30 µM	–	–	–	0.21 ± 0.03 µM	–	2.6 ± 0.1 µM	0.6 ± 0.2 µM	> 30 µM	lower active or inactive	MIC [4]: < 0.2 µM; MIC, A. baumannii [9]: 7.8 ± 7.1 µM; activity against Gram-positive strains (in words) ([15]; aerobic conditions): strong activity
Cc1ncc([N+](=O)[O-])n1CCO [Metronidazole, reference compound]	–	–	–	–	–	–	–	–	–	–	not active	–	–	–	–	IC50 ([1]; Homo sapiens, A549): > 100 µM; IC50 ([2]; Homo sapiens, HT-29): > 100 µM; IC50 ([3]; Homo sapiens, MDA-MB-231): > 100 µM; MIC ([4]; Staphylococcus aureus): > 350 µM; MIC ([5]; Pseudomonas aeruginosa, DSM24068, 20 h at 37 °C): > 350 µM; MIC ([6]; Klebsiella pneumoniae): > 350 µM; MIC ([7]; Enterococcus faecium): > 350 µM; MIC ([8]; Escherichia coli): > 350 µM; MIC ([9]; Acinetobacter baumannii): > 350 µM; IC50 ([10]; Homo sapiens): > 100 µM; concentration leading to a complete block of bacterial growth without recovery ([12]; metronidazole-resistant strain IB136, up to 100 µM, 48 h): no dosage of the drug could terminate the proliferation; antibacterial effect at 6.25 µM ([12]; resistant strain IB136, 6.25 µM): completely inactive; antibacterial effect at 6.25 µM ([13]; strain VPI10463, 6.25 µM, recovery of growth after extended exposure): effective inhibitors; antibacterial effect at 6.25 µM ([14]; strain 1296T, 6.25 µM, recovery of growth after extended exposure): effective inhibitors; IC50 ([16]; Chlorocebus sabaeus, Vero C1008): > 100 µM
CCOC(=O)Cn1[c]([Au-][Cl])[n+](C)c2ccccc21 [Compound 2a, Chlorido-(1-(2-ethoxy-2-oxoethyl)-3-methylbenzimidazol-2-ylidene)gold(I)]	26.1 ± 3.7 µM	19.9 ± 5.1 µM	9.6 ± 2.7 µM	–	–	–	–	–	9 to 26 µM	–	–	25.8 ± 4.6 µM	–	–	–	cytotoxicity of 2a relative to 2c (times stronger) ([10]; in all cases (all cell lines)): 3–4
